Experimental data reported in a melting point compilation (Tetko et al.; mined from patent text by program, amines drawn as free bases though some values may be those of a salt).

Row | SMILES | melting point [°C]
1 | CC(C#CC1=C(C)C(O)C(O)CC1(C)C)=CCO (stereo unspecified) | 115 to 117
2 | C[C@]12CCC(=O)N[C@@H]1CCc1cc(Sc3ccc(F)cc3)ccc12 | 179 to 181
3 | COC(CCOc1cc(C)ccc1C)C(C)(C)C(=O)O (stereo unspecified) | 76 to 77
4 | COc1ccc(-c2ccc3cc(C(=O)O)ccc3c2)cc1C12CC3CC(C)(CC(C)(C3)C1)C2 | 258 to 263
5 | Fc1ccc(N2CCN(Cc3ccc(CCl)cc3)CC2)cc1 | 81 to 83
6 | O=C(Nc1nc(C(F)(F)F)co1)C1c2ccccc2Oc2ccccc21 | 222
7 | Cc1nc(-c2cncc(F)c2)sc1N(C)C(=S)NC1CC1 | 117 to 119
8 | CC1CCC(=NC(=O)Nc2cccc(Cl)c2)N1C (stereo unspecified) | 129 to 130
9 | O=C(Nc1cccc2c1C(=O)c1c-2n[nH]c1-c1ccc(C(=O)N2CCN(CCO)CC2)s1)NN1CCOCC1 | 186 to 187
10 | O=C(O)C(O)c1ccc(-c2ccc(Cl)cc2)s1 (stereo unspecified) | 158 to 160
11 | CCN(CC)C(=O)c1nc(-c2cccc3ccccc23)no1 | 102
12 | O=C(O)c1ccccc1Sc1cc(Cl)ccc1C(=O)O | 241 to 242
13 | CC(C)n1cc2c3c(cccc31)C1CC(C(=O)NCCc3c[nH]cn3)CN(C)C1C2 (stereo unspecified) | 83 to 86
14 | NC(=O)N1CCC(OCCN2CCCCC2)C1 (stereo unspecified) | 134 to 136
15 | COC(=O)C(Cl)=Cc1ccc(Cl)cc1 | 78 to 80
16 | CC(c1oc2ccccc2c(=O)c1-c1cccc(F)c1)n1nc(-c2ccc(F)nc2)c2c(N)ncnc21 (stereo unspecified) | 203 to 206
17 | COc1ccc(C(NCCc2ccccc2)c2cccc(Nc3c(N)c(=O)c3=O)c2)cc1 (stereo unspecified) | 174 to 176
18 | CCCCCCCCC1C=CC(/C=C(\C)c2ccc(C(=O)O)o2)=C2N=C3CCCCC3=C21 (stereo unspecified) | 160 to 162
19 | CN(C)C(=O)Cn1c(-c2ccc(C(F)(F)F)cc2)nc2cccnc21 | 181 to 183
20 | COCC1CCCN1S(=O)(=O)c1ccc2c(c1)C1(OCCCO1)C(=O)N2 (stereo unspecified) | 127 to 128
21 | CCCn1c(=O)c2c(NC)n[nH]c2n(Cc2ccncc2)c1=O | > 300

Row | SMILES | melting point [°C]
22 | CCCCc1cn(-c2c(C)cc(C(C)(C)C)cc2C)c(=O)n1Cc1ccc(-c2ccccc2-c2nnn[nH]2)cc1 | 134 to 135
23 | CCOC(=O)c1ccc(-c2ccc(OCCO)c(-c3ccc(N(CC)CC)c(C(C)(C)C)c3)c2)cc1 | 127
24 | COc1ccc2[nH]c(=O)cc(C)c2c1 | 270 to 273
25 | CN1CCN(c2cc(NC(=O)c3ccc(-c4ccncc4)cc3)ccc2Cl)CC1 | 218 to 219
26 | CN(C)c1nc(N2CCOCC2)nc(-n2ccnc2)n1 | 156 to 158
27 | Cn1cc(C(=O)NCc2ccc(Cl)cc2)c(=O)c2cc(CCCCCO)oc21 | 151 to 152
28 | CCOC(=O)CCCC(=O)c1cn(-c2cccnc2)c2ccccc12 | 95 to 97
29 | N#CCc1cccn1Cc1ccccc1 | 62 to 63
30 | COC(=O)c1c(C(=O)OC)n(Cc2cccc(C(N)=S)c2)c2ccccc12 | 176 to 178
31 | CC(=O)Oc1ccc2c(c1Cl)Sc1ccccc1N2C(C)=O | 155
32 | O=c1[nH]c2ccccc2n1Cc1ccc(OC(F)(F)F)cc1 | 145 to 148
33 | CCCCCC(C#Cc1ccc(C(=O)O)cc1)c1ccc2c(c1)C(C)(C)CCC2(C)C (racemic) | 115 to 116
34 | CCN(CC)C(=O)n1cnc(Sc2c(C)cc(C)c(C)c2OC)n1 | 138 to 139
35 | C=CCNC(=O)c1cnc(SC)nc1NC(C)C | 159 to 161
36 | Cc1cc(-c2ccc(OC(C)C(O)CCc3cccnc3)cc2)ccc1C#N (stereo unspecified) | 93.5 to 94.5
37 | CC(=O)N1CCn2c(CN3CCOCC3)ccc2C1 | 117 to 118
38 | CCOC(=O)c1oc2ccc(Cl)cc2c1O | 100 to 102
39 | N#Cc1ccc(CCCN2C(=O)c3ccccc3C2=O)cc1 | 138 to 140
40 | CC(=O)C(C)c1ccc2c(c1)Cc1cccnc1O2 (stereo unspecified) | 136
41 | Oc1nc(Cl)n(-c2ccccc2)n1 | 147 to 149
